Assay results from US8557796B2, “Substituted 1-oxa-2,8-diaza-spiro [4,5] dec-2-ene derivatives and related treatment methods” (Gruenenthal GmbH, priority 2001, dated 2013).

biological target: T1, NA transporter (Rattus norvegicus, UniProt Q9WTR4); assay: Noradrenalin uptake inhibition (NA-uptake) in synaptosomes; format: biochemical; conditions: rat hypothalamus synaptosomes
T1 construct: synaptosomes from rat brain regions were freshly isolated; from tissue; host or cells: P2 synaptosome fraction from hypothalamus of male rat brain
T1 sequence (Q9WTR4 1-597): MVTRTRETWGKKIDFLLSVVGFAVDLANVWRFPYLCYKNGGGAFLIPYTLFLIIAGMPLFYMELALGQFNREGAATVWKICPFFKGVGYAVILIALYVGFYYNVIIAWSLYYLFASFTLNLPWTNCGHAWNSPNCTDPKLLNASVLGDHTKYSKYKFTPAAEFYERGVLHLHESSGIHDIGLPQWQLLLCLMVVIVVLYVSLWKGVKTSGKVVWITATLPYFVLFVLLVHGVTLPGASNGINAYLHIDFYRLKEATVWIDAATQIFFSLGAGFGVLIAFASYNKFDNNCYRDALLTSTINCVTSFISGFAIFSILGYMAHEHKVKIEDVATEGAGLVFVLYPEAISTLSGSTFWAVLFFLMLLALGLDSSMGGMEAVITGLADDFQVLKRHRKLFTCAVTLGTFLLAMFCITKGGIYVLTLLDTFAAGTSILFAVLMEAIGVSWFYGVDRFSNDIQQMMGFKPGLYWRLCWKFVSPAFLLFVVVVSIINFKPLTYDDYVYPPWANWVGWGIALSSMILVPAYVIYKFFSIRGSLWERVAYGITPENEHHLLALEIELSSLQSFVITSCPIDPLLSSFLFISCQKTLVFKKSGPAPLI
Text: Tests on Noradrenalin Uptake Inhibition (NA-Uptake Inhibition)
In order to be able to carry out these in vitro studies, synaptosomes from rat brain regions were freshly isolated.

| Compound | inhibition at 10 µM | NA-uptake, 10 μM, % inhibition |
| --- | --- | --- |
| O=C(C1=NOC2(CCN(S(=O)(=O)c3ccc(F)cc3)CC2)C1)N1CCN(CCCc2ccccc2)CC1 [Example 186, [8-(4-fluoro-benzenesulphonyl)-1-oxa-2,8-diaza-spiro[4,5]dec-2-en-3-yl]-[4-(3-phenyl-propyl)-piperazin-1-yl]-methanone] | 63% | – |
| CC(Oc1ccccc1)C(=O)N1CCC2(CC1)CC(C(=O)NCC1CC1)=NO2 (centres unmarked) [Example 123, 8-(2-phenoxy-propionyl)-1-oxa-2,8-diaza-spiro[4,5]dec-2-ene-3-carboxylic acid cyclopropylmethyl-amide] | 42% | – |
| COC(=O)C(Cc1ccc(Cl)cc1)NC(=O)C1=NOC2(CCN(S(=O)(=O)c3ccc(OC)cc3)CC2)C1 (centres unmarked) [Example 200] | – | 43% |
| Cc1ccccc1N1CCN(C(=O)C2=NOC3(CCN(S(=O)(=O)Cc4ccccc4)CC3)C2)CC1 [Example 133, (8-phenylmethanesulphonyl-1-oxa-2,8-diaza-spiro[4,5]dec-2-en-3-yl)-(4-o-tolyl-piperazin-l-yl)-methanone] | – | 48% |
| Cc1oc(C(C)(C)C)cc1C(=O)N1CCC2(CC1)CC(C(=O)NCC(C)C)=NO2 [Example 105, 8-(5-tert-butyl-2-methyl-furan-3-carbonyl)-1-oxa-2,8-diaza-spiro[4,5]dec-2-ene-3-carboxylic acid isobutyl-amide] | 53% | – |
| O=C(NCCN1CCCC1)C1=NOC2(CCN(S(=O)(=O)c3ccc(F)c(Cl)c3)CC2)C1 [Example 11] | – | 41% |
| O=C(Nc1ccccc1)C1=NOC2(CCN(C(=O)c3cccc(Cl)c3Cl)CC2)C1 [Example 172, 8-(2,3-dichloro-benzoyl)-1-oxa-2,8-diaza-spiro[4,5]dec-2-ene-3-carboxylic acid phenylamide] | 41% | – |
| O=C(NCC1COc2ccccc2O1)C1=NOC2(CCN(S(=O)(=O)c3ccc(Cl)s3)CC2)C1 (centres unmarked) [Example 194, 8-(5-chloro-thiophene-2-sulphonyl)-1-oxa-2,8-diaza-spiro[4,5]dec-2-ene-3-carboxylic acid (2,3-dihydro-benzo[1,4]dioxin-2-ylmethyl)-amide] | 65% | – |
| O=C(C1=NOC2(CCN(S(=O)(=O)c3cccc(C(F)(F)F)c3)CC2)C1)N1CCN(c2cc(C(F)(F)F)ccn2)CC1 [Example 119] | – | 43% |
| O=C(NCc1cccs1)C1=NOC2(CCN(C(=O)c3cccc(Cl)c3)CC2)C1 [Example 208] | – | 52% |
| O=C(NC1CCCC1OCc1ccccc1)C1=NOC2(CCN(S(=O)(=O)c3cccc(C(F)(F)F)c3)CC2)C1 (centres unmarked) [Example 201, 8-(3-trifluoromethyl-benzenesulphonyl)-1-oxa-2,8-diaza-spiro[4,5]dec-2-ene-3-carboxylic acid (2-benzyloxy-cyclopentyl)-amide] | 58% | – |
| O=C(NCc1ccc2c(c1)OCO2)C1=NOC2(CCN(S(=O)(=O)c3ccc(Cl)s3)CC2)C1 [Example 30, 8-(5-chloro-thiophene-2-sulphonyl)-1-oxa-2,8-diaza-spiro[4,5]dec-2-ene-3-carboxylic acid (benzo[1,3]dioxol-5-ylmethyl)-amide] | 48% | – |
| O=C(C1=NOC2(CCN(S(=O)(=O)c3cc(Cl)ccc3Cl)CC2)C1)N1CCN(Cc2ccccc2)CC1 [Example 209, (4-benzyl-piperazin-l-yl)-[8-(2,5-dichloro-benzenesulphonyl)-1-oxa-2,8-diaza-spiro[4,5]dec-2-en-3-yl]-methanone] | – | 51% |
| COc1ccc(C(=O)N2CCC3(CC2)CC(C(=O)NCc2ccccc2)=NO3)cc1 [Example 131, 8-(4-methoxy-benzoyl)-1-oxa-2,8-diaza-spiro[4,5]dec-2-ene-3-carboxylic acid benzylamide] | 57% | – |
| CC(C)CC(NC(=O)C1=NOC2(CCN(S(=O)(=O)c3cccs3)CC2)C1)C(=O)OC(C)(C)C (centres unmarked) [Example 145, 4-methyl-2-{[8-(thiophene-2-sulphonyl)-1-oxa-2,8-diaza-spiro[4,5]dec-2-ene-3-carbonyl]-amino]-pentanoic acid tert-butyl ester] | 46% | – |
| C=C(C)CN(CC)C(=O)C1=NOC2(CCN(S(=O)(=O)c3ccc(OC(F)(F)F)cc3)CC2)C1 [Example 103, 8-(4-trifluoromethoxy-benzenesulphonyl)-1-oxa-2,8-diaza-spiro[4,5]dec-2-ene-3carboxylic acid ethyl-(2-methyl-allyl)-amide] | 47% | – |
| O=C(NCc1ccccc1)C1=NOC2(CCN(C(=O)c3ccc(F)c(Cl)c3)CC2)C1 [Example 205, 8-(3-chloro-4-fluorobenzoyl)-1-oxa-2,8-diaza-spiro[4,5]dec-2-ene-3-carboxylic acid benzylamide] | 46% | – |

| Compound | inhibition at 10 µM | NA-uptake, 10 μM, % inhibition |
| --- | --- | --- |
| Cc1ccc(C(C)NC(=O)C2=NOC3(CCN(S(=O)(=O)c4cccs4)CC3)C2)cc1 (centres unmarked) [Example 23, 8-(thiophene-2-sulphonyl)-1-oxa-2,8-diaza-spiro[4,5]dec-2-ene-3-carboxylic acid (1-p-tolyl-ethyl)-amide] | 49% | – |
| COc1cccc(CCNC(=O)C2=NOC3(CCN(S(=O)(=O)c4ccc(F)cc4)CC3)C2)c1 [Example 124, 8-(4-fluoro-benzenesulphonyl)-1-oxa-2,8-diaza-spiro[4,5]dec-2-ene-3-carboxylic acid [2-(3-methoxy-phenyl)-ethyl]-amide] | 49% | – |
| O=C(NCc1cccs1)C1=NOC2(CCN(C(=O)c3ccc(Br)cc3)CC2)C1 [Example 141] | – | 61% |
| O=C(C1=NOC2(CCN(S(=O)(=O)c3ccc(F)cc3)CC2)C1)N1CCN(C2CCCCCC2)CC1 [Example 218] | – | 44% |
| O=C(NCC(c1ccccc1)c1ccccc1)C1=NOC2(CCN(S(=O)(=O)c3ccc(Cl)s3)CC2)C1 [Example 79, 8-(5-chloro-thiophene-2-sulphonyl)-1-oxa-2,8-diaza-spiro[4,5]dec-2-ene-3-carboxylic acid (2,2-diphenyl-ethyl)-amide] | 58% | – |
| CN(C)S(=O)(=O)N1CCC2(CC1)CC(C(=O)N1CCN(CCCc3ccccc3)CC1)=NO2 [Example 80, 3-[4-(3-phenyl-propyl)-piperazine-1-carbonyl]-1-oxa-2,8-diaza-spiro[4,5]dec-2-ene-8-sulphonic acid dimethylamide] | 60% | – |
| CCOC(=O)C1CCCCN1C(=O)C1=NOC2(CCN(C(=O)c3ccc(C(C)(C)C)cc3)CC2)C1 (centres unmarked) [Example 195, 1-[8-(4-tert-butyl-benzoyl)-1-oxa-2,8-diaza-spiro[4,5]dec-2-ene-3-carbonyl]-piperidine-2-carboxylic acid ethyl ester] | 41% | – |
| CCSc1ncccc1C(=O)N1CCC2(CC1)CC(C(=O)NCc1ccccc1)=NO2 [Example 115, 8-(2-ethylsulphanyl-pyridine-3-carbonyl)-1-oxa-2,8-diaza-spiro[4,5]dec-2-ene-3-carboxylic acid benzylamide] | 55% | – |
| O=C(NCCc1ccc(F)cc1)C1=NOC2(CCN(S(=O)(=O)c3ccc(OC(F)(F)F)cc3)CC2)C1 [Example 129, 8-(4-trifluoromethoxy-benzenesulphonyl)-1-oxa-2,8-diaza-spiro[4,5]dec-2-ene-3-carboxylic acid [2-(4-fluorophenyl)-ethyl]-amide] | 43% | – |
| CCOC(=O)CCNC(=O)C1=NOC2(CCN(S(=O)(=O)c3ccccc3Cl)CC2)C1 [Example 116, 3-{[8-(2-chloro-benzenesulphonyl)-1-oxa-2,8-diaza-spiro[4,5]dec-2-ene-3-carbonyl]-amino}-propionic acid ethyl ester] | 60% | – |
| O=C(NCc1ccncc1)C1=NOC2(CCN(C(=O)c3ccc(OC(F)(F)F)cc3)CC2)C1 [Example 187, 8-(4-trifluoromethoxy-benzoyl)-1-oxa-2,8-diaza-spiro[4,5]dec-2-ene-3-carboxylic acid (pyridin-4-ylmethyl)-amide] | 44% | – |
| CC(Oc1ccccc1)C(=O)N1CCC2(CC1)CC(C(=O)NCc1ccccc1)=NO2 (centres unmarked) [Example 149, 8-(2-phenoxy-propionyl)-1-oxa-2,8-diaza-spiro[4,5]dec-2-ene-3-carboxylic acid benzylamide] | 50% | – |
| CCOC(=O)C1CCCCN1C(=O)C1=NOC2(CCN(C(=O)c3cc(C(C)(C)C)oc3C)CC2)C1 (centres unmarked) [Example 179, 1-[8-(5-tert-butyl-2-methyl-furan-3-carbonyl)-1-oxa-2,8-diaza-spiro[4,5]dec-2-ene-3-carbonyl]-piperidine-2-carboxylic acid ethyl ester] | 49% | – |
| O=C(NCC1CC1)C1=NOC2(CCN(C(=O)CCCOc3ccccc3)CC2)C1 [Example 118, 8-(4-phenoxy-butyryl)-1-oxa-2,8-diaza-spiro[4,5]dec-2-ene-3-carboxylic acid cyclopropylmethyl-amide] | 46% | – |
| CN(C)S(=O)(=O)N1CCC2(CC1)CC(C(=O)NC1CCCC1OCc1ccccc1)=NO2 (centres unmarked) [Example 163, 8-dimethylsulphamoyl-1-oxa-2,8-diaza-spiro[4,5]dec-2-ene-3-acarboxylic cid (2-benzyloxy-cyclopentyl)-amide] | – | 62% |
| CSc1ncccc1C(=O)N1CCC2(CC1)CC(C(=O)NCC(C)C)=NO2 [Example 125, 8-(2-methylsulphanyl-pyridine-3-carbonyl)-1-oxa-2,8-diaza-spiro[4,5]dec-2-ene-3-carboxylic acid isobutyl-amide] | 40% | – |
| O=C(NCc1cccs1)C1=NOC2(CCN(C(=O)COc3cccc(Cl)c3)CC2)C1 [Example 96, 8-[2-(3-chloro-phenoxy)-acetyl]-1-oxa-2,8-diaza-spiro[4,5]dec-2-ene-3-carboxylic acid (thiophen-2-ylmethyl)-amide] | 49% | – |

same assay, conditions: rat hypothalamus synaptosomes, 10 µM

| Compound | NA-uptake, 10 μM, % inhibition |
| --- | --- |
| COc1ccc(S(=O)(=O)N2CCC3(CC2)CC(C(=O)NC2CCCC2OCc2ccccc2)=NO3)cc1 (centres unmarked) [Example 121, 8-(4-methoxy-benzenesulphonyl)-1-oxa-2,8-diaza-spiro[4,5]dec-2-ene-3-carboxylic acid (2-benzyloxy-cyclopentyl)-amide] | 55% |
